The values that follow are results of earlier work, collected in US20140212465A1, “TREATMENT AND PREVENTION OF DENTAL PATHOLOGY IN HUMANS AND NON-HUMAN ANIMALS” (priority 2011, published 2014).

For this series the following is noted: aqueous environment.

`[Ca+2].[OH-].[OH-]` [calcium hydroxide]: the pH is 12.5.
